Where two headings read alike, the source gives them in different places.
Legend:
mice = test: Acute toxicity test; format: in vivo; settings: mortality observed for seven days
Procedure: Using three dd strain male mice weighing 20±1 g, a test compound was orally (po; 300 mg/kg) or intraperitoneally (ip; 100 mg/kg) administered. MLD (the minimum lethal dose) was determined by observing the mortality for seven days after administration.

histamine H1 receptor = molecular target: T1, histamine H1 receptor (Cavia porcellus, UniProt P31389); test: Binding study using 3H-pyrilamine (histamine H1 receptor binding); parameters: species or system guinea pig; settings: read-out: (%) Inhibition (3H-pyrilamine binding)
T1 construct: from tissue; host or cells: guinea pig cerebellum membranes
Procedure: Receptor binding was determined by the method of chang et al. [J. Neurochem., 32, 1953 (1979)].
The cerebellum of guinea pig was suspended in a 40-fold amount (V/W) of chilled 50 mM phosphate buffer (pH 7.5) with Polytron Homogenizer (Kinematica Co., Ltd.). The suspension was centrifuged (35,500×g, 10 minutes). The resulting precipitates were resuspended in an equal amount of fresh buffer followed by centrifugation. A 100-fold amount (V/W) of chilled buffer was added to the final precipitates.
To 1 ml of the membrane suspension adjusted as described above were added 50 μl of tritium-labeled pyrilamine (^3 H-pyrilamine; NEN Co., Ltd.) and 50 μl of a test compound. The mixture was allowed to stand at 25° C. for 30 minutes, 4 ml of chilled buffer was added thereto. The mixture was rapidly filtered through a glass fiber filter (GF/C; Whatman). The filter paper was further washed three times with 5 ml of buffer. Hereafter procedures were performed in a manner similar to the TXA2 receptor binding test to determine radioactivity.
An inhibitory activity of the test compound against H1 receptor was calculated by the following equation. [formula]
Amount of the total binding is an amount of ^3 H-pyrilamine-bound radioactivity in the absence of a test compound.
The amount of non-specific binding is an amount of ^3 H-pyrilamine-bound radioactivity in the presence of 3 μM Astemizole (manufactured by Janesen Pharmaceutics).
The amount bound in the presence of a test compound is an amount of ^3 H-pyrilamine-bound radioactivity in the presence of a test compound in various concentrations.

[1] = system: guinea pig platelets (TXA2/prostaglandin H2 receptor); test: Test on anti-platelet activity (TXA2 antagonizing test): inhibition of U-46619-induced platelet aggregation; format: cell-based; settings: Cavia porcellus, 0.05 h; minimum concentration inhibiting U-46619 (0.5-1 μM)-induced platelet aggregation by 30% or more; guinea pig PRP; read-out: TXA2 Antagonizing Activity (MEC), minimum effective concentration
Procedure: Using guinea pig platelets influence of the compounds in accordance with the present invention on platelet aggregation induced by U-46619 (9,11-dideoxy-9α,11a-methanoepoxyprostaglandin F2 α; manufactured by Cayman Chemica Co., Ltd.) which is a TXA2 /prostaglandin H2 receptor stimulant was examined.
Male guinea pig (Hartley strain; body weight, 300 to 600 g) was anesthesized by intraperitoneal administration of sodium pentobarbital (30 mg/kg) and blood was collected from the descending aorta of the abdomen with a 1/10 volume of sodium citrate. By centrifugation (KC-70: manufactured by Kubota Co., Ltd.) at 800 rpm for 10 minutes, platelet rich plasma (PRP) was collected. Platelet aggregation induced by U-46619 (0.5-1 μM) was determined by photometry [Born, G.V.R. et al., Nature (London), 194, 927-929 (1962)]. A test compound was pretreated 3 minutes prior to aggregation induction and ability of inhibiting aggregation was measured. The minimum concentration for inhibiting platelet aggregation by 30% or more was defined as the minimum effective concentration (MEC) of the test compound.

[2] = system: homologous passive cutaneous anaphylaxis (PCA); test: Antiallergic activity test: homologous passive cutaneous anaphylaxis (PCA) test for 48 hours using rats; format: in vivo, rat (Wistar strain, male); settings: Rattus norvegicus, po, minimum dose with at least one of 3 rats showing PCA inhibition rate 50% or more, read-out: Antiallergic Activity (MED), minimum effective dose
Procedure: Antiallergic activity was examined in accordance with the passive cutaneous anaphylaxis (PCA) test using rats. As test animals, Wistar strain male rats weighing 180 to 220 g were used to collect antiserum and for the PCA test, Wistar strain male rats weighing 120 to 140 g were used.
Anti-EWA rat serum was prepared according to the method of Stotland and Share [Can. J. Physiol. Pharmacol., 52, 1114 (1974)]. That is, 1 mg of EWA was mixed with 20 mg of aluminum hydroxide gel and 0.5 ml of pertussis-diphtberia-tetanus mixed vaccine. The mixture was subcutaneously administered to the rat paw in 4 portions. Fourteen days after, blood was collected from the carotid artery and the serum was isolated and stored in a state frozen at -80° C. Titer of this antiserum to homologous PCA for 48 hours was 1:32.
Three rats were used per group. After the hair at the back was cut, 0.05 ml each of anti-EWA rat serum diluted to 8-fold with physiological saline was intracutaneously injected to each rat at the back in 2 places to passively sensitize the rat. A test compound or its solution (physiological saline solution or CMC solution) was orally administered 47 hours after and 0.5 ml/100 g of 1% Evans Blue physiological saline containing 2 mg of antigen EWA was then intravenously administered to the tail vein an hour after the administration. Thirty minutes later, the animal was bled to death. The skin was peeled off and a leaked dye amount at the blue dyed portion was measured according to the method of Katayama et al. [Microbiol. Immunol., 22, 89 (1978)]. That is, the blue dyed portion was cut off with scissors, put into a test tube charged with 1 ml of 1 N potassium hydroxide and incubated at 37° C. for 24 hours. After 9 ml of a mixture of 0.6 N phosphate:acetone (5:13) was added to the system, the mixture was shaken followed by centrifugation at 2500 rpm for 10 minutes. The absorbancy of the supernatant at 620 nm was measured and the leaked dye amount was quantitatively determined by comparison with a calibration curve previously prepared. A value of one rat was obtained from a mean value of the two portions and an inhibition rate-of each rat was calculated according to the following equation. [formula]
The case showing that the inhibition rate is 50% or more is judged to be positive in the PCA inhibition activity and the minimum dose in which at least one out of 3 rats was recognized to be positive was defined as the minimum effective dose (MED) of the test compound.

TXA2 receptor = molecular target: T2, TXA2 receptor (Cavia porcellus, UniProt A0A286Y4I8); test: Binding study using 3H-U46619 (TXA2 receptor binding activities test); parameters: species or system guinea pig; settings: for inhibition at 1 µM: 20 min, read-out: % Inhibition (3H-U46619 binding); for inhibitory activity (TXA2 receptor binding), in words: statement in words on Table 4
T2 construct: To a washed platelet suspension (1×10^8 platelets) of guinea pig; endogenous in cells; host or cells: washed guinea pig platelets
T2 sequence (A0A286Y4I8 1-347): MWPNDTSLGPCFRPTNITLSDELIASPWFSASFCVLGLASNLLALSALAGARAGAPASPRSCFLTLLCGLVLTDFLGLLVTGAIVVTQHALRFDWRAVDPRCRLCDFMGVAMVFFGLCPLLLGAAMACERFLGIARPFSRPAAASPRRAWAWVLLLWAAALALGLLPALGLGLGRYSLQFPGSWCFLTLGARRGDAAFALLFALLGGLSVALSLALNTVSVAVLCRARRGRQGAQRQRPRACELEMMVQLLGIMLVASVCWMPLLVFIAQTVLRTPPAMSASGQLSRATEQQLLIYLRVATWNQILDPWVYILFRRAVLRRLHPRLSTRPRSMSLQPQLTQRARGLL
Procedure: Receptor binding was determined by a modified method of Kattelman et al. (Thrombosis Research, 41, 471 (1986)].
To a washed platelet suspension (1×10^8 platelets) of guinea pig were added 12 nM of tritium-labeled U46619 (^3 H-U46619; NEN Co., Ltd.) and a test compound (final concentration: 1 μM) solution. After keeping at 37° C. for 20 minutes, the mixture was rapidly filtered through a glass fiber filter paper (GF/C; Whatman). Immediately, the filter paper was washed 5 times with 3 ml of ice-cold 50 mM Tris-hydroxymethylaminomethane buffer (containing 100 mM sodium chloride). The glass fiber filter was transferred to a vial and a scintillator (Ex-H; manufactured by Wako Pure Chemical Industries Co., Ltd.) was added thereto. The radioactivity was determined with a liquid scintillation counter.
It is already known that ^3 H-U46619 is capable of binding with TXA2 receptor (see the publication supra). An inhibitory activity of the test compound against this binding means an ability of binding with the TXA2 receptor. It is also known that a good relationship exists between this binding activity and the anti-platelet activity (TXA2 antagonizing test).
An inhibitory activity (binding activity) of the test compound was calculated by the following equation. [formula]
Amount of the total binding is an amount of ^3 H-U46619-bound radioactivity in the absence of a test compound.
The amount of non-specific binding is used to mean an amount of ^3 H-U46619-bound radioactivity in the presence of 10 μM U-46619.
The amount bound in the presence of a test compound is an amount of ^3 H-U46619-bound radioactivity in the presence of a test compound in various concentrations.

[3] = test compound 1 μM, 12 nM 3H-U46619, washed guinea pig platelets, 37° C., 20 minutes

T1 sequence (P31389 whole entry): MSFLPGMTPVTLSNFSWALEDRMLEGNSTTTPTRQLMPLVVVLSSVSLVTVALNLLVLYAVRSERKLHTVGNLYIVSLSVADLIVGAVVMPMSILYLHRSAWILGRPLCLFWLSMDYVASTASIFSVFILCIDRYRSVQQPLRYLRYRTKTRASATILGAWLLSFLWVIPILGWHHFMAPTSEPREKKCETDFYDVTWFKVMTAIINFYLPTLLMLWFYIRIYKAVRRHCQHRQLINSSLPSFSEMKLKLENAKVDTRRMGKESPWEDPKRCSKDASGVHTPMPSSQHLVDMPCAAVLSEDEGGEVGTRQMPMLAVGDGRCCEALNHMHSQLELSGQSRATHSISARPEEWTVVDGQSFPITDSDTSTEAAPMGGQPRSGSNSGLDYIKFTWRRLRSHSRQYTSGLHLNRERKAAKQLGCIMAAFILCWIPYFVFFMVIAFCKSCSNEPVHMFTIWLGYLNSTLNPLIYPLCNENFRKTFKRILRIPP

Structure (SMILES)	Acute Toxicity (MLD), minimum lethal dose (mice; ip)	Acute Toxicity (MLD), minimum lethal dose (mice; po)	inhibition at 1 µM (histamine H1 receptor)	minimal effective concentration [1]	minimal effective dose [2]	inhibition at 1 µM (TXA2 receptor; [3])	inhibitory activity (TXA2 receptor binding), in words (TXA2 receptor)	inhibition at 1 µM (TXA2 receptor)
O=C(O)c1ccc2c(c1)C(SCCN1CCN(c3ccccc3)CC1)c1ccccc1CO2 (stereo not drawn) [Compound 1b, 11-[2-(4-Phenyl-1-piperazinyl)ethyl]thio-6,11-dihydrodibenz[b,e]oxepin-2-carboxylic acid]	> 100 mg/kg	> 300 mg/kg	68%	3 µg/mL	10 mg/kg	–	–	–
O=C(O)c1ccc2c(c1)C(SCCN1CCN(c3ccc(F)cc3)CC1)c1ccccc1CO2 (stereo not drawn) [Compound 8b]	> 100 mg/kg	> 300 mg/kg	–	1 µg/mL	10 mg/kg	–	–	–
COc1ccccc1N1CCN(CCSC2c3ccccc3COc3ccc(C(=O)O)cc32)CC1 (stereo not drawn) [Compound 9b]	> 100 mg/kg	> 300 mg/kg	–	1 µg/mL	10 mg/kg	–	–	–
O=C(O)c1ccc2c(c1)C(SCCN1CCC(c3ccccc3)CC1)c1ccccc1CO2 (stereo not drawn) [Compound 37b, 11-[2-(4-Phenyl-1-piperidinyl)ethyl]thio-6,11-dihydrodibenz[b,e]oxepin-2-carboxylic acid]	> 100 mg/kg	> 300 mg/kg	–	10 µg/mL	1 mg/kg	–	–	–
O=C(O)c1ccc2c(c1)C(SCCN1CCC(Cc3ccccc3)CC1)c1ccccc1CO2 (stereo not drawn) [Compound 38b]	–	–	92%	1 µg/mL	1 mg/kg	81%	–	–
CN(C)CCSC1c2ccccc2COc2ccc(C(=O)O)cc21 (stereo not drawn) [Compound (A), reference compound]	–	–	88%	–	–	-4%	not observed	–
CN(C)CCC=C1c2ccccc2COc2ccc(CC(=O)O)cc21 [Compound (B), reference compound]	–	–	–	–	–	1%	not observed	–
O=C(O)c1ccc2c(c1)/C(=C/CN1CCN(c3ccc(F)cc3)CC1)c1ccccc1CO2 [Compound E-73b, (E)-11-[2-[4-(4-Fluorophenyl)-1-piperazinyl]ethylidene]-6,11-dihydrodibenz[b,e]oxepin-2-carboxylic acid.isopropanol. monohydrate]	> 100 mg/kg	> 300 mg/kg	–	10 µg/mL	> 100 mg/kg	85%	–	–
O=C(O)c1ccc2c(c1)/C(=C/CN1CCN(S(=O)(=O)C=Cc3ccccc3)CC1)c1ccccc1CO2 [Compound E-78b, (E)-11-[2-[4-(Styrylsulfonyl)-1-piperazinyl]ethylidene]-6,11-dihydrodibenz[b,e]oxepin-2-carboxylic acid-0.1 iso-propanol.0.1 hydrate]	> 100 mg/kg	> 300 mg/kg	–	3 µg/mL	> 100 mg/kg	83%	–	–
O=C(O)c1ccc2c(c1)/C(=C/CN1CCN(S(=O)(=O)c3cccs3)CC1)c1ccccc1CO2 [Compound E-79b, (E)-11-[2-[4-(2-Thienylsulfonyl)-1-piperazinyl]ethylidene]-6,11-dihydrodibenz[b,e]oxepin-2-carboxylic acid.0.5 hydrate]	> 100 mg/kg	> 300 mg/kg	–	30 µg/mL	> 100 mg/kg	77%	–	–
O=C(O)c1ccc2c(c1)/C(=C/CN1CCN(CC=Cc3ccccc3)CC1)c1ccccc1CO2 [E-75b', (E)-11-[3-(4-Cinnamyl-1-piperazinyl)ethylidene]-6,11-dihydrodibenz[b,e]oxepin-2-carboxylic acid.difumarate-0.5 hydrate]	> 100 mg/kg	> 300 mg/kg	–	0.1 µg/mL	100 mg/kg	85%	–	–
CN1CCC(=C2c3ccccc3CC(=O)c3sccc32)CC1 [Ketotifen, reference compound]	–	–	–	–	–	–	not observed	-3%

From patent US5302602A, “Tricyclic thromboxane A2 antagonists” (Kyowa Hakko Kogyo Co., Ltd., priority 1987, dated 1994)
